The target of one series is COX-1 (Mus musculus (Mouse), UniProt P22437). In words: COX-1 expression in brain regions of LPS-treated mice, immunoblotting. It counts as in vivo. As to conditions: for COX-1 expression reduction (%): LPS-treated mice, mofezolac 6 mg/kg i.p. The protocol: Substantia nigra pars compacta (SNpc), Hippocampus, Frontal lobe and Caudate from mice brains were minced in ice-cold PBS, washed and then homogenized in a buffer containing lysis buffer (50 mM Tris pH 8, 0.02 g/mL NaCl, 0.2% SDS, 1% Triton-X, 4 U/ml aprotinin, 2 mM leupeptin, 100 mM phenylmethanesulfonyl fluoride).
The tissue and cell culture lysates were vortexed for 15-20 s and, then, centrifuged at 12,800×g for 20 min. The protein concentration in the supernatant was spectrophotometrically determined by Bradford's protein assay (Bradford, 1976). Protein samples were diluted with sample buffer (0.5 M Tris-HCl pH=6.8, 10% glycerol, 10% (w/v) SDS, 5% 2-mercaptoethanol, 0.05% (w/v) bromophenol blue) and then boiled for 3 min. Proteins (25 μg/lane) and prestained standards (BioRad Laboratories, Hercules, CA, USA) were loaded on 7% or 12% SDS precast polyacrylamide gels (BioRad Laboratories).
After electrophoresis, the resolved proteins were transferred from the gel to nitrocellulose membranes. A blotting buffer [20 mMTris/150 mM glycine, pH=8.0, 20% (v/v) methanol] was used for gel and membrane saturation and blotting. Then, membranes were incubated in the dark with 1 μg/mL mouse monoclonal antibody (MoAb) anti-COX-1 and rabbit polyclonal Ab anti-COX-2 (1:1000) (both from AbCam, Cambridge, UK), rabbit polyclonal Ab anti p-IkB-α (1:200), mouse polyclonal Ab anti β-actin (1:500) (all from Santa Cruz Biotechnology), mouse MoAb anti-glial fibrillary acidic protein (GFAP) (1:200) and mouse mAb anti-ionized calcium-binding adapter molecule-1 (Iba-1) (1:200) (both from Merck Millipore) overnight at 4° C. The membranes were washed with 0.1% Tween 20-PBS (for 20 min, 3 times) and then incubated with the secondary antibody diluted 1:2000 for 60 min. Bands were visualized by chemiluminescence detection (Invitrogen, Milan, Italy). The β-actin level was used as a protein loading control. For tissue analysis, obtained bands were normalized to the level of β-actin performed for each cerebral area tested. For cell cultures the bands were normalized to the β-actin level in each experimental condition.
(§1) On the seventh day, mice were anesthetized with tribromoethanol (250 mg/Kg, i.p.) and positioned in a stereotactic apparatus (Kopf Instruments, Tujunga, CA, USA). […] Sterotaxic injections coordinates were: 2.3 mm dorsal/ventral, 1.0 mm lateral, and 0.5 mm anterior/posterior from the bregma.
On the technique in general: In western blotting, separated proteins are transferred to a membrane and probed.

For a further series, the target named is COX-2 (Homo sapiens, UniProt P35354). In words: colorimetric COX Inhibitor screening Assay (peroxidase component, oxidized TMPD at 590 nm). It counts as biochemical. The note with it: at 50 μM, the highest concentration tested. The protocol: Human cyclooxygenase inhibitory activity was determined by a colorimetric COX Inhibitor screening Assay which measures the peroxidase component of the cyclooxygenases, monitoring the appearance of oxidized N,N,N′,N′-tetramethyl-p-phenylenediamine (TMPD) at 590 nm.
Chain of COX-2 (P35354 18-604 limits assumed): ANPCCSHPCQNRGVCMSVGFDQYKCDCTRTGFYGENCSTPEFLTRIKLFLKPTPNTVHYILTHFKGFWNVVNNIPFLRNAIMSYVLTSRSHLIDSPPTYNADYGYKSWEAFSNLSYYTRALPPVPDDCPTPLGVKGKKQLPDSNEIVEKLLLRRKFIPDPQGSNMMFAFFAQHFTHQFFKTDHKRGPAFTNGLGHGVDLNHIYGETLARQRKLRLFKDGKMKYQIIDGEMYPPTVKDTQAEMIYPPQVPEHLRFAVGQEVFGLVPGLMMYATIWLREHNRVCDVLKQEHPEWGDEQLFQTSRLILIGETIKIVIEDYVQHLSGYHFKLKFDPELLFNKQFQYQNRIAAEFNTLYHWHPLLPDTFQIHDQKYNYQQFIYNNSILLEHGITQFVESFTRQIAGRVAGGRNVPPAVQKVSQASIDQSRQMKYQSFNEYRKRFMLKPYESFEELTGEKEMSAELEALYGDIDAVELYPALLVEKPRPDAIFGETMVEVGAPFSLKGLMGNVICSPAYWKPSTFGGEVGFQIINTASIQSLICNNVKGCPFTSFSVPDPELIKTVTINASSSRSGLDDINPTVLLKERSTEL

A further series concerns p-IkBα. In words: NF-kB activation (p-IkBα) in brain areas of LPS-treated mice, immunoblotting. It counts as in vivo. The note with it: all tested brain areas of LPS-treated mice. The protocol:
The protein concentration in the supernatant was spectrophotometrically determined by Bradford's protein assay (Bradford, 1976). […] Proteins (25 μg/lane) and prestained standards (BioRad Laboratories, Hercules, CA, USA) were loaded on 7% or 12% SDS precast polyacrylamide gels (BioRad Laboratories). After electrophoresis, the resolved proteins were transferred from the gel to nitrocellulose membranes. A blotting buffer [20 mMTris/150 mM glycine, pH=8.0, 20% (v/v) methanol] was used for gel and membrane saturation and blotting. […] Bands were visualized by chemiluminescence detection (Invitrogen, Milan, Italy). The β-actin level was used as a protein loading control. For tissue analysis, obtained bands were normalized to the level of β-actin performed for each cerebral area tested. For cell cultures the bands were normalized to the β-actin level in each experimental condition. […] VM in all the Figures) once a day for 10 days. […] On the seventh day, mice were anesthetized with tribromoethanol (250 mg/Kg, i.p.) and positioned in a stereotactic apparatus (Kopf Instruments, Tujunga, CA, USA).

Another series has as its system BV2 microglial cells. The series is described as follows: BV2 microglial cell viability, MTT reduction assay. It counts as cell-based. The note with it: 24 h, P6 0.5 and 1 μM, mofezolac 0.1 and 0.5 μM, alone or with LPS. The protocol: Cells were then incubated for different times at 37° C. with LPS, as pro-inflammatory stimulus. Experiments included cells grown in medium alone (control).
Cell viability of microglial cells was quantified using the MTT reduction assay. The cells (8×10^3/well) were grown in 96-well plates (Becton Dickinson Labware) in complete medium and treated with different concentration of COX inhibitors, in presence or absence of LPS. Untreated cells were used as a control. A PBS 1× solution of MTT (5 mg/mL) was prepared and added to the cell medium at a final concentration of 0.5 mg/mL. Cells were incubated for 4 h at 37° C. and 5% CO2 to allow the MTT metabolism. The formazan crystals formed (from MTT) into the cells were solubilized with DMSO (Sigma-Aldrich). The levels of MTT formazan were determined measuring the optical density at λ=560 nm and subtracting the background (λ=670 nm) with a Victor Multiplate Reader (Wallac). Optical density was directly correlated to cell quantity.
In general terms: Tetrazolium dyes change colour on reduction, which living cells bring about.

The test system of a further series is PGE2. The series is described as follows: PGE2 release in brain specimens from LPS-treated mice. It counts as in vivo. The note with it: for PGE2 release reduction (%): LPS-treated mice, mofezolac 6 mg/kg i.p.; for PGE2 release (ng/mg tissue): LPS or M+LPS treated mice. The protocol: as §1
Microglial cells were cultured in 6-well plates at a density of 3×10^6 cells/well. […] The cultures were maintained at 37° C. for 24 and 48 h in a humidified air containing a 5% CO2. PGE2 levels were determined in the supernatant using a competitive binding immunoassay (Cayman Chemical, Ann Arbor, MI, USA) following the manufacturer's instructions. Unstimulated cells were included as a control. PGE2 amount determination in the brain was performed in the tissue extracts, according to the manufacturer's instructions. The optical density was measured at λ=405-420 nm with precision microplate reader and the amount of PGE2 (ng/mL) was calculated using a PGE2 standard curve.

Marks after values point to notes of the source that are not given here.

A word on the inhibition: it is the relative decrease from the control value, in per cent. Low readings indicate little suppression, high ones strong suppression.

Turning to `COc1ccc(-c2noc(CC(=O)O)c2-c2ccc(OC)cc2)cc1` [mofezolac, 2-(3,4-bis(4-methoxyphenyl)isoxazol-5-yl)acetic acid], the “COX-1 expression reduction (%)” value at COX-1 (Caudate) is reported as 95%; on COX-1 (Frontal lobe), 94%; at COX-1 (Hippocampus), 82%; on COX-1 (Substantia nigra), 89%. Besides, on COX-1 (LPS challenged mice, all brain areas tested), the COX-1 expression entry is given as “significantly reduction of COX-1 expression”. Moreover, on COX-2, the inhibition at 50 µM was 38%. In addition, in the series with p-IkBα, the p-IkBα result was “significant reduction”. Further, the cell toxicity result in the series with BV2 microglial cells was “No cell toxicity”. Also, the “PGE2 release reduction (%)” value was found to be 67% with PGE2 (Caudate), 49% in the series with PGE2 (Frontal lobe), 48% with PGE2 (Hippocampus) and 39% with PGE2 (Substantia nigra). Moreover, the “PGE2 release (ng/mg tissue)” value in the series on PGE2 (Caudate-Putamen) was 1.84 + 0.035 ^d ng/mg tissue; with PGE2 (Frontal lobe), 2.40 ± 0.046 ^d ng/mg tissue; in the series on PGE2 (Hippocampus) it was 2.33 ± 0.032 ^d ng/mg tissue; in the series with PGE2 (Substantia nigra), 3.31 ± 0.079 ^d ng/mg tissue.

Source of the values: patent US12011433B2 (UNIVERSITÁ DEGLI STUDI DI BARI “ALDO MORO”, priority 2016, dated 2024).
